Measured values: PMC8151276, “An Integrated Approach toward NanoBRET Tracers for Analysis of GPCR Ligand Engagement” (Molecules, 2021)

Biological target: T1, P2RY13 (Homo sapiens, UniProt Q9BPV8)
T1 construct: purchased Promega (in-house HiBiT-GPCR construct library, NanoBRET)
T1 sequence (Q9BPV8 1-354): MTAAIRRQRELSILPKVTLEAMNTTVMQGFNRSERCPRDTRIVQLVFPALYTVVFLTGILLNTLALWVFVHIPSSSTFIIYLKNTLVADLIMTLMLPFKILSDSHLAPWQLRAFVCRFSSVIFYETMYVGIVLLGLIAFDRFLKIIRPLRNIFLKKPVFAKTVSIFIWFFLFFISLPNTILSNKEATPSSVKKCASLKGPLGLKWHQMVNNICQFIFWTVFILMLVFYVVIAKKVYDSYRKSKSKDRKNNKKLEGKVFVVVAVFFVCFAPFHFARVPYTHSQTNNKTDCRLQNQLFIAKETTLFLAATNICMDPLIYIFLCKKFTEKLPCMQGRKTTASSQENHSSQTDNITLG
Assay: NanoBRET screen HiBiT-P2RY13 in HEK293
Type: binding
Method: Each tracer candidate was screened across the entire library of HiBiT-GPCR constructs using NanoBRET as the detection modality. As depicted in Figure 4A, the specificity of interactions was evaluated through decrease in BRET due to competitive displacement of a bound tracer by excess parental compound. Each tracer was analyzed for binding to each HiBiT-GPCR fusion in the absence and in the presence of competing parental compound. Briefly, HEK293 cells were transfected with HiBiT-GPCR constructs diluted into promoterless DNA to reduce expression and maximize translocation to the cell surface. Each tracer candidate was then screened at concentrations of 1 μM and 0.1 μM across cells expressing these fusions. Cells were treated for 1.5 h with tracer either alone or in the presence of 20 μM competing parental compound (i.e., control). BRET was measured upon addition of purified LgBiT and subsequent complementation with HiBiT genetically fused to a GPCR. The specificity of interactions was assessed through a decrease in BRET signal due to competitive displacement of the bound tracer. To further gauge the robustness of these interactions, the fold response over the control (i.e., BRETtracer/BRETcontrol) was calculated. We chose a 1.5-fold response, which translates to ≥7-fold signal over noise as the minimal threshold required to score an interaction as positive. […]. Below we highlight the screening results obtained for our exemplary fluorescent tracers based on Clozapine, Amitriptyline and AZD1283.
HiBiT-GPCR DNA constructs were diluted in 10 mM Tris pH 8 to a final concentration of 0.01 μg/μL, arrayed in 96-well plates and stored at −20 °C. For transfection, HEK293 cells were suspended in Opti-MEM (without phenol red) supplemented with 2% fetal bovine serum (Seradigm) and 100 units/mL penicillin–streptomycin (Gibco) at a final concentration of 220,000 cells/mL and dispensed into white 96-well plates at 90 μL/well. Subsequent transfections and screens were carried using an Agilent Bravo Automated Liquid Handling Platform. First, the 96-well HiBiT DNA arrays were diluted 25-fold in Opti-MEM (without serum or phenol red) to a final concentration of 0.0004 μg/μL and 20 μL of the diluted DNAs were transferred into new 96-well plates. Next, promoterless carrier DNA (1 μg/μL) was diluted 25-fold (0.04 μg/μL) and then dispensed into the diluted arrays at 20 μL/well. Following brief mixing, Viafect transfection reagent (Promega) diluted 16-fold into Opti-MEM was dispensed into the plates at 40 μL/well. After mixing by pipetting, plates were incubated for 10 min on the pipetting station deck. The DNA-transfection reagent complexes were then added to plates containing cells. To facilitate the screen, 10 μL of DNA-transfection reagent complexes were added in duplicates to the top 4 and bottom 4 rows, resulting in two identical 48-well arrays per plate. Plates with transfected cells were incubated for 18–20 h at 37 °C/5% CO2. A screen of each tracer across the entire library using two different concentrations requires duplicate plates of transfected cells. Depending on the number of tracers being screened, transfections can be scaled up using the same ratios. The next day, for each tracer, four 20× screening solutions in tracer dilution buffer (Promega) were prepared: two duplicates at final concentration of 20 μM and two duplicates at a final concentration of 2 μM. A competing unmodified compound was added to one of each duplicate at a final concentration of 400 μM. The four resulting solutions were diluted 4-fold in Opti-MEM without serum or phenol red to generate 5× solutions (5 µM and 0.5 µM tracer +/− 100 μM competing compound). To screen the library, a BioTek MultiFlo FX liquid dispenser was used to dispense 22.5 µL of tracer solution to the top 4 rows and 22.5 µL tracer + competing compound solution to the 4 bottom rows. Plates were briefly mixed on an orbital shaker and incubated for 1.5 h at room temperature. […]

Structure (SMILES)	NanoBRET Fold Response (P2RY13, tracer 0.1μM)	NanoBRET Fold Response (P2RY13, tracer 1μM)	further results
CN1CCN(C2=Nc3cc(Cl)ccc3Nc3ccc(CNC(=O)CCOCCOCCOCCOCCNC(=O)CCc4ccc5n4[B-](F)(F)[N+]4=C(c6ccc[nH]6)C=CC4=C5)cc32)CC1 [Clozapine-b-2-NB590]			NanoBRET Fold Response (P2RY13, 0.1μM tracer): 1.02; NanoBRET Fold Response (P2RY13, 1μM tracer): 0.99
CN(C)CCC=C1c2ccccc2CCc2ccc(C(=O)NCCNC(=O)CCOCCOCCOCCOCCNC(=O)CCc3ccc4n3[B-](F)(F)[N+]3=C(c5ccc[nH]5)C=CC3=C4)cc21 [Amitriptyline-b-2-NB590]			NanoBRET Fold Response (tracer at 0.1μM, listed as amitriptyline-b-2-NB590): 1.08; NanoBRET Fold Response (tracer at 1μM, listed as amitriptyline-b-2-NB590): 0.96
CCOC(=O)c1cc(C#N)c(N2CCC(C(=O)NS(=O)(=O)Cc3ccccc3/C=C/C(=O)NCCNC(=O)CCc3ccc4n3[B-](F)(F)[N+]3=C(c5ccc[nH]5)C=CC3=C4)CC2)nc1C [AZD1283-1-NB590]			NanoBRET Fold Response (P2RY13, 0.1μM): 1.93; NanoBRET Fold Response (P2RY13, 1μM): 1.83
CC(C)N(CC[C@H](c1ccccc1)c1cc(CCNC(=O)CCOCCOCCOCCOCCNC(=O)CCc2ccc3n2[B-](F)(F)[N+]2=C(c4ccc[nH]4)C=CC2=C3)ccc1O)C(C)C [Tolterodine-2-NB590]	1.26	1.28	
CC(C)N(CC[C@H](c1ccccc1)c1cc(CCNC(=O)c2ccc(CNC(=O)CCc3ccc4n3[B-](F)(F)[N+]3=C(c5ccc[nH]5)C=CC3=C4)cc2)ccc1O)C(C)C [Tolterodine-BZ-NB590]	0.89	0.94	
O=C(CCOCCOCCOCCOCCNC(=O)CCc1ccc2n1[B-](F)(F)[N+]1=C(c3ccc[nH]3)C=CC1=C2)NCCCN1CCN(C2=Nc3ccccc3Oc3ccc(Cl)cc32)CC1 [Loxapine-a-2-NB590]	0.92	0.96	
CN1CCN(C2=Nc3cc(Cl)ccc3N(CC(=O)NCCOCCOCCOCCOCCNC(=O)CCc3ccc4n3[B-](F)(F)[N+]3=C(c5ccc[nH]5)C=CC3=C4)c3ccccc32)CC1 [Clozapine-c-2-NB590]			NanoBRET Fold Response (P2RY13, 0.1μM tracer): 0.99; NanoBRET Fold Response (P2RY13, 1μM tracer): 0.99
CN(C)CCC=C1c2ccccc2CCc2ccc(C(=O)NCCNC(=O)CCOCCOCCOCCOCCNC(=O)CCc3ccc4n3[B-](F)(F)[N+]3=C(c5ccc[nH]5)C=CC3=C4)cc21 [Amitriptyline-a-2-NB590]			NanoBRET Fold Response (tracer at 0.1μM): 1.09; NanoBRET Fold Response (tracer at 1μM): 0.85
Cc1nc2n(c(=O)c1CCN1CCC(c3noc4cc(F)ccc34)CC1)CCCC2OC(=O)NCCOCCOCCOCCOCCNC(=O)CCc1ccc2n1[B-](F)(F)[N+]1=C(c3ccc[nH]3)C=CC1=C2 (stereo not shown) [Risperidone-2-NB590]	1.03	0.90	
COc1ccc2[nH]c(-c3ccc(CNC(=O)CCOCCOCCOCCOCCNC(=O)CCc4ccc5n4[B-](F)(F)[N+]4=C(c6ccc[nH]6)C=CC4=C5)cc3)c(CCNC(C)=O)c2n1 [AzomelatoninICO9-2-NB590]			NanoBRET Fold Response (0.1μM tracer): 0.87; NanoBRET Fold Response (1μM tracer): 1.09
COc1ccccc1N1CCN(CCCCN2C(=O)c3ccc(CNC(=O)CCOCCOCCOCCOCCNC(=O)CCc4ccc5n4[B-](F)(F)[N+]4=C(c6ccc[nH]6)C=CC4=C5)cc3C2=O)CC1 [NAN-190-2-NB590]	0.97	1.04	
O=C(CCc1ccc2n1[B-](F)(F)[N+]1=C(c3ccc[nH]3)C=CC1=C2)NCCOCCOCCNC(=O)OCCOCCN1CCN(C2=Nc3ccccc3Sc3ccccc32)CC1 [Quetiapine-a-2-NB590]	0.98	0.95	
O=C(CCOCCOCCOCCOCCNC(=O)CCc1ccc2n1[B-](F)(F)[N+]1=C(c3ccc[nH]3)C=CC1=C2)NCCCN1CCN(C2=Nc3cc(Cl)ccc3Nc3ccccc32)CC1 [Clozapine-a-2-NB590]			NanoBRET Fold Response (P2RY13, 0.1μM tracer): 1.06; NanoBRET Fold Response (P2RY13, 1μM tracer): 0.94
N#CN=C(NCCCOc1cccc(CN2CCCCC2)c1)NCCNC(=O)CCOCCOCCOCCOCCNC(=O)CCc1ccc2n1[B-](F)(F)[N+]1=C(c3ccc[nH]3)C=CC1=C2 [Aminopotentidine-2-NB590]	0.97	1.02	
O=C(CCc1ccc2n1[B-](F)(F)[N+]1=C(c3ccc[nH]3)C=CC1=C2)NCc1ccc(C(=O)NCCOCCOCCNCC(O)COc2cccc3ccccc23)cc1 (stereo not shown) [Propranolol-3-NB590]			NanoBRET Fold Response (P2RY13, 0.1μM): 0.90; NanoBRET Fold Response (P2RY13, 1μM): 0.97
O=C(CCc1ccc2n1[B-](F)(F)[N+]1=C(c3ccc[nH]3)C=CC1=C2)NCc1ccc(C(=O)NCCOCCC(=O)N[C@@H]2CC[C@@]3(O)[C@H]4Cc5ccc(O)c6c5[C@@]3(CCN4CC3CC3)[C@H]2O6)cc1 [Naltrexone-3-NB590]	0.62	0.92	
COc1ccccc1N1CCN(CCCCN2C(=O)c3ccc(CNC(=O)CCOCCNC(=O)c4ccc(CNC(=O)CCc5ccc6n5[B-](F)(F)[N+]5=C(c7ccc[nH]7)C=CC5=C6)cc4)cc3C2=O)CC1 [NAN-190-3-NB590]	1.02	0.92	
Cc1cc2c(s1)Nc1ccccc1N=C2N1CCN(CCCNC(=O)CCOCCOCCOCCOCCNC(=O)CCc2ccc3n2[B-](F)(F)[N+]2=C(c4ccc[nH]4)C=CC2=C3)CC1 [Olanzapine-a-2-NB590]	1.09	0.86	
CCCn1c(=O)c2[nH]c(-c3ccc(OCC(=O)NCCNC(=O)CCOCCNC(=O)c4ccc(CNC(=O)CCc5ccc6n5[B-](F)(F)[N+]5=C(c7ccc[nH]7)C=CC5=C6)cc4)cc3)nc2n(CCC)c1=O [XAC-3-NB590]	1.00	1.03	
COc1ccc2c(n1)c(CCNC(C)=O)cn2CCNC(=O)CCc1ccc2n1[B-](F)(F)[N+]1=C(c3ccc[nH]3)C=CC1=C2 [Azamelatonin-1-NB590]			NanoBRET Fold Response (0.1μM tracer): 1.08; NanoBRET Fold Response (1μM tracer): 1.08
